Assay results taken from PMC6037691, “Selenazolyl-hydrazones as Novel Selective MAO Inhibitors With Antiproliferative and Antioxidant Activities: Experimental and In-silico Studies” (Frontiers in Chemistry, 2018).

How the values were obtained:
[1] = DPPH scavenging antioxidant assay; conditions: concentration providing 50% of radicals scavenging activity; mean ± SD, n = 3
Procedure: The experiments were performed according to the literature protocol (Prior et al., [2005]). All tested compounds were initially dissolved in DMSO. The initial concentration of DPPH in methanol was 6.58 × 10^−5 M. A volume of 140 μL of DPPH solution was placed into a 96-well microplate, and then 10 μL solution of the tested compounds was added. Pure DMSO (10 μL) was used as the control. The absorbance at 517 nm was measured after 30 min period of incubation in the dark at 25°C. The Equation (1) was used for calculation of the scavenging activity:
(1) Scavenging activity (%)=Acontrol- Asample/Acontrol×100
where Asample and Acontrol refer to the absorbances at 517 nm of the sample and control, respectively. IC50 values were calculated from the graph of scavenging activity against the concentrations of the samples. IC50 represents the total antioxidant concentration of the sample which decreases the amount of the initial DPPH radical by 50%. Ascorbic acid (vitamin C) was used as positive control (concentration range 10–500 μM).

[2] = Total antioxidant capacity (TAOC), modified phosphomolybdenum method; conditions: concentration providing 0.500 of absorbance at 695 nm; mean ± SD, n = 3
Procedure: (§1) Volume of 0.4 mL of sample solution (50–1,000 μM) was mixed with 1.6 mL of reagent solution [0.6 M H2SO4, 28 mM Na3PO4, and 4 mM (NH4)2MoO4] and resulting mixtures were incubated at 95°C for 90 min. The cooled reaction mixtures were then centrifuged for 10 min (3,000 rpm). The absorbance of the supernatant solution was measured, 1 h after centrifugation, at 695 nm against reagent solution as blank. An increased absorbance in reading in both assays indicated increased antioxidant power, expressed as EC50 values (the sample concentration giving absorbance of 0.500 from the graph of absorbance at 700 nm or 695 nm against compound concentration) (Prieto et al., [1999]).

[3] = Total reducing power (TRP), modified potassium ferricyanide reduction method; conditions: concentration providing 0.500 of absorbance at 700 nm; mean ± SD, n = 3
Procedure: The mixture containing 0.5 mL of phosphate buffer (0.2 M, pH = 6.6), 0.5 mL of K3[Fe(CN)6] (1%; w/v) and 0.5 mL of the samples (100–1,500 μM) was incubated at 50°C for 20 min. A volume of 0.5 mL of trichloroacetic acid (TCA, 10%; w/v), 0.5 mL of Milli-Q water and 0.5 mL of FeCl3 (0.1%; w/v) was added, followed by intensive vortexing. The absorbance of the resulting mixture was measured after 60 min at 700 nm using phosphate buffer as blank (Oyaizu, [1986]).
as §1

MAO A = target: T1, MAO A (Homo sapiens, UniProt P21397); experiment: MAO A inhibition, discontinuous fluorimetric kynuramine assay; type: biochemical; conditions: for inhibition at 1 µM: 1 μM inhibitor, mean ± SD, n = 2, normalized to control
T1 construct: purchased Sigma-Aldrich
T1 sequence (P21397 1-527): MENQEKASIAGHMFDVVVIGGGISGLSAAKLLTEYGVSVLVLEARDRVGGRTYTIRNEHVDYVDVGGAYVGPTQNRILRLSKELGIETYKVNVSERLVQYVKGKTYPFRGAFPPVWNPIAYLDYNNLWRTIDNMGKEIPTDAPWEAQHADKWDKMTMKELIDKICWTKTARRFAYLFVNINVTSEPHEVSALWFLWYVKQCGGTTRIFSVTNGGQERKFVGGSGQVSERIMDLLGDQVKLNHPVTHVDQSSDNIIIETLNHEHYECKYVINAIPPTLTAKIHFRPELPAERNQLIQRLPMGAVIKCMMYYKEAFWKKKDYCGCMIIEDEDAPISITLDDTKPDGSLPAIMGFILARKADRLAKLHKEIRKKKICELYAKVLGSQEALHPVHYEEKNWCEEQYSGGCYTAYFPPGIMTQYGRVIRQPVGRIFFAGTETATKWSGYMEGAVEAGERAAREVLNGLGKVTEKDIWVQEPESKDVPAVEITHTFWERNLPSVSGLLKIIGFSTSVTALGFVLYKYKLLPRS
Procedure: (§2) MAO A and B inhibition capacities were investigated using a discontinuous fluorimetric assay (Meiring et al., [2013]) as described previously by using human recombinant membrane-bound MAO purchased from Sigma-Aldrich (Affini et al., [2018]). Briefly, remained enzyme activity with inhibitor, either 1 μM (one-point) or concentrations ranging from 0.0001 to 10 μM, was assessed in the presence of kynuramine [2 × KM, KM = 20 μM (MAO A), KM = 30 μM (MAO B)] in potassium phosphate buffer (pH 7.4). Reactions were started by addition of enzyme and stopped by manual addition of sodium hydroxide (2 N) after 20 min. Enzyme activity was determined by detection of 4-hydroxyquinoline (λEx = 320 nm, λEm = 405 nm). Data were analyzed using GraphPad PRISM 6. For one-point measurements data were calculated as percentage of control and expressed as mean ± standard deviation (%). […] Data were obtained from two (one-point measurements) or at least three (IC50 values) independent experiments, each performed in duplicates.

[4] = system: A549 (non-small cell lung); experiment: Antiproliferative activity, A549; type: cell-based, human; conditions: Homo sapiens
Procedure: (§3) The in vitro antiproliferative activity of investigated compounds was evaluated against six human solid tumor cell lines: A549 (non-small cell lung), HBL-100, (breast), HeLa (cervix), SW1573 (non-small cell lung), as drug sensitive lines, T-47D (breast) and WiDr (colon) as drug resistant lines. These cell lines were a kind gift from Prof. G. J. Peters (VU Medical Center, Amsterdam, The Netherlands). For selectivity studies, the human fibroblasts BJ-hTert cell line was used, which was obtained from Dr. R. Freire (HUC, Tenerife, Canary Islands). Cells were kept in culture medium under standard conditions: RPMI 1640 medium, fetal bovine serum (5%), glutamine (2 mM), penicillin G (100 units/mL) and streptomycin (0.1 mg/mL). Antiproliferative tests were conducted as described earlier (Skehan et al., [1990]; Miranda et al., [2006]). Tested compounds were dissolved in DMSO at an initial concentration of 40 mM. DMSO was used as negative control (0.25% v/v). Antiproliferative activity of the compounds was expressed as GI50, which is the concentration of the compound that inhibits 50% of the culture growth.

HBL-100 (breast) = experiment: Antiproliferative activity, HBL-100; type: cell-based, human; conditions: Homo sapiens
Procedure: as §3

T-47D (breast) = experiment: Antiproliferative activity, T-47D; type: cell-based, human; conditions: for GI50: Homo sapiens, T47D
Procedure: as §3

WiDr (colon) = experiment: Antiproliferative activity, WiDr; type: cell-based, human; conditions: for GI50: Homo sapiens
Procedure: as §3

HeLa (cervix) = experiment: Antiproliferative activity, HeLa; type: cell-based, human; conditions: Homo sapiens
Procedure: as §3

[5] = system: SW1573 (non-small cell lung); experiment: Antiproliferative activity, SW1573; type: cell-based, human; conditions: Homo sapiens
Procedure: as §3

[6] = system: human fibroblasts BJ-hTert cell line; experiment: Selectivity, non-transformed fibroblasts BJ-hTert; type: cell-based; conditions: Fibroblast; BJ-hTert normal human cell line; concentrations up to 100 μM
Procedure: as §3

MAO B = target: T2, MAO B (Homo sapiens, UniProt P27338); experiment: MAO B inhibition, discontinuous fluorimetric kynuramine assay; type: biochemical; conditions: for inhibition at 1 µM: 1 μM inhibitor, mean ± SD, n = 2, normalized to control
T2 construct: purchased Sigma-Aldrich
T2 sequence (P27338 1-520): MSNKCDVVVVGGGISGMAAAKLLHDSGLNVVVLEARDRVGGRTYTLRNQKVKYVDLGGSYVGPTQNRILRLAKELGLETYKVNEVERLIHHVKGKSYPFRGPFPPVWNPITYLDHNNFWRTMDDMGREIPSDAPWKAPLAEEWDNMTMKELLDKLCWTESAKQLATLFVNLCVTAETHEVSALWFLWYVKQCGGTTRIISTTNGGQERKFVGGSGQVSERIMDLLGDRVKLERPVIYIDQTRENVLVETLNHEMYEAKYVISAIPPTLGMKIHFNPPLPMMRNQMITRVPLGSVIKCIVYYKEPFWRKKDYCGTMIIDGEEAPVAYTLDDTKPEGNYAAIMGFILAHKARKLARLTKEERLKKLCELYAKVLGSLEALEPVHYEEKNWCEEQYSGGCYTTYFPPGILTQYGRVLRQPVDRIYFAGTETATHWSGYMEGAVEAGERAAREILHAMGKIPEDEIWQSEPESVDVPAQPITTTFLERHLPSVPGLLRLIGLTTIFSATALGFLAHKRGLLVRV
Procedure: as §2

[7] = system: six human solid tumor cell lines; experiment: Antiproliferative activity, panel as a whole; type: cell-based; parameters: key: moderate activity (GI50 = 10–100 μM); good activity (GI50 = 1–10 μM); inactive (GI50 > 100 μM)
Procedure: as §3

[8] = mean, 95% CI, at least three experiments

Compound	IC50 [1] [µM]	EC50 [2] [µM]	EC50 [3] [µM]	inhibition at 1 µM (MAO A) [%]	GI50 [4] [µM]	GI50 (HBL-100 (breast)) [µM]	GI50 (T-47D (breast); T-47D) [µM]	GI50 (WiDr (colon)) [µM]	GI50 (HeLa (cervix)) [µM]	GI50 [5] [µM]	GI50 [6] [µM]	melting point [°C]	inhibition at 1 µM (MAO B) [%]	antiproliferative activity class against five cell lines ([7]; five cell lines of the six)	GI50 (T-47D (breast)) [µM]	IC50 (MAO A; [8]) [µM]	antiproliferative activity class T-47D (T-47D (breast); T-47D)	antiproliferative activity class WiDr (WiDr (colon))	IC50 (MAO B; [8]) [µM]	antiproliferative activity class against all six cell lines ([7]; all six cell lines)
O=C1O[C@H]([C@@H](O)CO)C(O)=C1O [vitamin C, Ascorbic acid, reference compound]	79.1 ± 1.8	140 ± 10	155 ± 39	–	–	–	–	–	–	–	–	–	–	–	–	–	–	–	–	–
Cc1ccc(-c2c[se]c(NN=Cc3ccccc3)n2)cc1 [Compound 1-Me, 2-(2-benzylidenehydrazinyl)-4-(p-tolyl)-1,3-selenazole]	45.1 ± 6.53	603 ± 61	966 ± 88	12.7 ± 3.5	> 100	> 100	> 100	> 100	> 100	47 ± 3	> 100	174 to 176	23.4 ± 17.1	inactive	–	–	–	–	–	–
O=c1[nH]cc(F)c(=O)[nH]1 [5-fluorouracil, reference compound]	–	–	–	–	> 100	4 ± 0.7	–	49 ± 6.7	15 ± 4.7	4.6 ± 1.5	5.5 ± 0.5	–	–	–	47 ± 18	–	–	–	–	–
COc1ccc(-c2c[se]c(NN=Cc3ccc([N+](=O)[O-])cc3)n2)cc1 [Compound 4-OMe, 4-(4-methoxyphenyl)-2-(2-(4-nitrobenzylidene)hydrazinyl)-1,3-selenazole]	79.2 ± 3.9	645 ± 53	398 ± 44	49.4 ± 1.3	16 ± 5.3	47 ± 13	66 ± 17	> 100	33 ± 10	26 ± 17	> 100	208 to 211	42.5 ± 19	–	–	–	–	–	–	–
O=[N+]([O-])c1ccc(C=NNc2nc(-c3ccccc3)c[se]2)cc1 [Compound 4, 2-(2-(4-nitrobenzylidene)hydrazinyl)-4-phenyl-1,3-selenazole]	44.8 ± 2.3	433 ± 43	376 ± 51	71.9 ± 3.5	16 ± 3.5	> 100	6.3 ± 1.1	6.9 ± 1.3	31 ± 8.5	23 ± 1.2	> 100	–	96.3 ± 0.5	–	–	0.258	good activity (good activity (GI50 = 1–10 μM))	good activity (good activity (GI50 = 1–10 μM))	0.073	–
Cc1ccc(-c2c[se]c(NN=Cc3ccc([N+](=O)[O-])cc3)n2)cc1 [Compound 4-Me, 2-(2-(4-nitrobenzylidene)hydrazinyl)-4-(p-tolyl)-1,3-selenazole]	40.1 ± 4.7	579 ± 51	495 ± 48	22.1 ± 2.1	> 100	> 100	> 100	> 100	> 100	> 100	> 100	228 to 230	48.1 ± 2.9	–	–	–	–	–	–	inactive
